The source of these data is patent US20260256925A1, “INDAZOLE DERIVATIVES AS ESTROGEN RECEPTOR DEGRADERS” (REGENTS OF THE UNIVERSITY OF MICHIGAN, priority 2022, published 2026).

Where only a bound is given, the exact number is not on record here.

For one assay, the target named is T1, ER (Homo sapiens, UniProt P03372).
T1 construct: endogenous in cells; probably T47D or MCF-7
T1 sequence (P03372 1-595): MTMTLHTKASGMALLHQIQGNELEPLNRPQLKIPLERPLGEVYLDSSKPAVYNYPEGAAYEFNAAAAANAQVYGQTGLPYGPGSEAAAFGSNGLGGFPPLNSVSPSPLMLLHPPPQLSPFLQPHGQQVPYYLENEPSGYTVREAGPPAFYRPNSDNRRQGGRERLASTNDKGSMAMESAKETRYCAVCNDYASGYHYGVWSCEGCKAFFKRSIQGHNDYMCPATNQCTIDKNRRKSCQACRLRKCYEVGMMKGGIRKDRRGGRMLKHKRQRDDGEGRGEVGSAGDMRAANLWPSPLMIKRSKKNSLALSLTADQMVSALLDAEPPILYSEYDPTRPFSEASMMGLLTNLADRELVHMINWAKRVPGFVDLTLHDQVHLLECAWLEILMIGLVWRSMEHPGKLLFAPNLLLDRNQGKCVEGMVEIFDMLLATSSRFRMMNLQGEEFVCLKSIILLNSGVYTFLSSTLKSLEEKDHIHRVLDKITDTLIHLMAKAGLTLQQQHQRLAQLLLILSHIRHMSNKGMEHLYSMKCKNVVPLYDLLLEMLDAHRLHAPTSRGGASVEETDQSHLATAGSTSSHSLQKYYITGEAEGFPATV
Nature of the assay: In-cell western blot analysis, relative ER percentage (compounds B1-B126). Type of assay: cell-based. The conditions noted are these: ER degradation, 16 hours, read-out: ICW DC50. On the procedure: In-cell western blot analysis. Cells are seeded in multi-well plates (e.g., at 40,000 or 10,000 cells/well). Diluted compounds at certain concentration are added (final 0.5% DMSO) and cells are incubated for a certain period of time (e.g., 16 hours). Formaldehyde (e.g., PBS: FA=9:1) is added and followed by washing with PBS. The cells are blocked with Licor blocking buffer (Li-Cor). The relative ER percentage in treated cells are obtained by comparing the values of treated wells to those in untreated and DMSO-treated wells as 100%.
In-cell western blot analysis. a. seed cells in black-sided/clear bottom 96- or 384-well plates at 40,000 or 10,000 cells/well, overnight; b. add diluted compounds (final 0.5% DMSO), 16 hours. […] RT 2h, gentle shaking. Negative control: cells plus secondary antibodies (no primary antibodies); e. wash×4 with PBS +0.05-0.1% Tween 20, gentel shaking; f. anti-rabbit-680 and anti-mouse-800 (both 1:1000 in LiCor block+0.05% Tween20, RT 1h, gentle shaking, no light. LI-COR: 0.2% to reduce background; g. wash×4 with PBS+0.05% Tween 20, gental shaking; h. add 100 μL or 25 μL of PBS to each well and read on CLX plate reader. The relative ER percentage in treated cells were obtained by comparing the values of treated wells to those in untreated and DMSO-treated wells as 100%.

The nature of assay [1]: Cell growth assay, WST-8 (compounds B1-B126). Format: cell-based. The following applies: 96 h; T47D cell line, WST-8, 4 days; read-out: Cell growth inhibition in T47D cell line IC50. On the procedure: Cell Growth Assay. The cells are seeded at certain concentration (e.g., at 1500/well) in multi-well plates overnight. Cells are subsequently treated with the compounds. A certain period of time (e.g., 4 days) after the compound treatment, 10% WST-8 reagent is added to the culture medium and incubate under certain condiction (e.g., in a CO2 incubator at 37° C. for 2.5 hours). The absorbance is measured on each sample using a microplate reader at certain wavelength (e.g., 450 nm). The relative absorbance is calculated against the vehicle control from three individually repeats.
Cell Growth Assay. The cells were seeded at 1500/well in 96 well plates overnight. One day after the seeding, they were treated with indicated doses of compounds respectively. 4 days after the compound treatment, 10% WST-8 reagent was added to the culture medium and incubate in a CO2 incubator at 37° C. for 2.5 hours. Before reading, the plate was mixed gently on an orbital shaker for one minute to ensure homogeneous distribution of color. The absorbance was measured of each sample using a microplate reader at a wavelength of 450 nm. The relative absorbance was calculated against the vehicle control from three individually repeats.

Turning to `C[C@@H]1Cc2c(ccc3[nH]ncc23)[C@@H](c2c(F)cc(N3CCC4(CC3)CN(C(=O)CN3CCN5c6cc7c(cc6OC[C@@H]5C3)C(=O)N(C3CCC(=O)NC3=O)C7)C4)cc2F)N1CC(F)F` (stereo partly drawn) [Compound B20, 3-((S)-3-(2-(7-(4-((6S,8R)-7-(2,2-difluoroethyl)-8-methyl-6,7,8,9-tetrahydro-3H-pyrazolo[4,3-f]isoquinolin-6-yl)-3,5-difluorophenyl)-2,7-diazaspiro[3.5]nonan-2-yl)-2-oxoethyl)-8-oxo-1,2,3,4,4a,5,8,10-octahydro-9H-pyrazino[1′,2′: 4,5][1,4]oxazino[2,3-f]isoindol-9-yl)piperidine-2,6-dione], the half-maximal degradation concentration (DC50) on ER is under 10 nM. The IC50 in assay [1] was under 1 nM.

`C[C@@H]1Cc2c(ccc3[nH]ncc23)[C@@H](c2c(F)cc(N3CCC4(CC3)CN(CC(=O)N3CCN5c6cc7c(cc6OC[C@@H]5C3)C(=O)N(C3CCC(=O)NC3=O)C7)C4)cc2F)N1CC(F)F` (stereo partly drawn) [Compound B21, 3-((S)-3-(2-(7-(4-((6S,8R)-7-(2,2-difluoroethyl)-8-methyl-6,7,8,9-tetrahydro-3H-pyrazolo[4,3-f]isoquinolin-6-yl)-3,5-difluorophenyl)-2,7-diazaspiro[3.5]nonan-2-yl)acetyl)-8-oxo-1,2,3,4,4a,5,8,10-octahydro-9H-pyrazino[1′,2′: 4,5][1,4]oxazino[2,3-f]isoindol-9-yl)piperidine-2,6-dione]: the DC50 at ER was under 10 nM. In addition, in assay [1], the concentration for half-maximal inhibition (IC50) was under 1 nM.

As to `C[C@@H]1Cc2c(ccc3[nH]ncc23)[C@@H](c2c(F)cc(N3CC4(CCN(C(=O)CN5CCN6c7cc8c(cc7OC[C@@H]6C5)C(=O)N(C5CCC(=O)NC5=O)C8)CC4)C3)cc2F)N1CC(F)F` (stereo partly drawn) [Compound B22, 3-((S)-3-(2-(2-(4-((6S,8R)-7-(2,2-difluoroethyl)-8-methyl-6,7,8,9-tetrahydro-3H-pyrazolo[4,3-f]isoquinolin-6-yl)-3,5-difluorophenyl)-2,7-diazaspiro[3.5]nonan-7-yl)-2-oxoethyl)-8-oxo-1,2,3,4,4a,5,8,10-octahydro-9H-pyrazino[1′,2′:4,5][1,4]oxazino[2,3-f]isoindol-9-yl)piperidine-2,6-dione], the 50% degradation concentration (DC50) at ER is under 10 nM. The concentration for half-maximal inhibition (IC50) in assay [1] was under 1 nM.

Take `C[C@@H]1Cc2c(ccc3[nH]ncc23)[C@@H](c2c(F)cc(N3CCC4(CCN(C(=O)CN5CCN6c7cc8c(cc7OC[C@@H]6C5)C(=O)N(C5CCC(=O)NC5=O)C8)CC4)C3)cc2F)N1CC(F)F` (stereo partly drawn) [Compound B23, 3-((S)-3-(2-(2-(4-((6S,8R)-7-(2,2-difluoroethyl)-8-methyl-6,7,8,9-tetrahydro-3H-pyrazolo[4,3-f]isoquinolin-6-yl)-3,5-difluorophenyl)-2,8-diazaspiro[4.5]decan-8-yl)-2-oxoethyl)-8-oxo-1,2,3,4,4a,5,8,10-octahydro-9H-pyrazino[1′,2′:4,5][1,4]oxazino[2,3-f]isoindol-9-yl)piperidine-2,6-dione]: the 50% degradation concentration (DC50) on ER was under 10 nM. For the same compound, the half-maximal inhibitory concentration (IC50) in assay [1] is under 1 nM.

Take `C[C@@H]1Cc2c(ccc3[nH]ncc23)[C@@H](c2c(F)cc(NC3CN(C(=O)CN4CCN5c6cc7c(cc6OC[C@@H]5C4)C(=O)N(C4CCC(=O)NC4=O)C7)C3)cc2F)N1CC(F)F` (stereo partly drawn) [Compound B26, 3-((S)-3-(2-(3-((4-((6S,8R)-7-(2,2-difluoroethyl)-8-methyl-6,7,8,9-tetrahydro-3H-pyrazolo[4,3-f]isoquinolin-6-yl)-3,5-difluorophenyl)amino)azetidin-1-yl)-2-oxoethyl)-8-oxo-1,2,3,4,4a,5,8,10-octahydro-9H-pyrazino[1′,2′:4,5][1,4]oxazino[2,3-f]isoindol-9-yl)piperidine-2,6-dione]: the half-maximal degradation concentration (DC50) on ER is under 10 nM. In addition, the IC50 in assay [1] is under 1 nM.

As to `C[C@@H]1Cc2c(ccc3[nH]ncc23)[C@@H](c2c(F)cc(NC3CN(CC(=O)N4CCN5c6cc7c(cc6OC[C@@H]5C4)C(=O)N(C4CCC(=O)NC4=O)C7)C3)cc2F)N1CC(F)F` (stereo partly drawn) [Compound B27], on ER, the half-maximal degradation concentration (DC50) was 10 to 100 nM. Besides, the IC50 in assay [1] is under 1 nM.

In the case of `C[C@@H]1Cc2c(ccc3[nH]ncc23)[C@@H](c2c(F)cc(C3CCN(C(=O)CN4CCN5c6cc7c(cc6OC[C@@H]5C4)C(=O)N(C4CCC(=O)NC4=O)C7)CC3)cc2F)N1CC(F)F` (stereo partly drawn) [Compound B28, 3-((S)-3-(2-(4-(4-((6S,8R)-7-(2,2-difluoroethyl)-8-methyl-6,7,8,9-tetrahydro-3H-pyrazolo[4,3-f]isoquinolin-6-yl)-3,5-difluorophenyl)piperidin-1-yl)-2-oxoethyl)-8-oxo-1,2,3,4,4a,5,8,10-octahydro-9H-pyrazino[1′,2′:4,5][1,4]oxazino[2,3-f]isoindol-9-yl)piperidine-2,6-dione], the half-maximal degradation concentration (DC50) on ER is 10 to 100 nM. In assay [1], the 50% inhibitory concentration (IC50) was under 1 nM.

Turning to `C[C@@H]1Cc2c(ccc3[nH]ncc23)[C@@H](c2c(F)cc(N3CCC(CN4CCN5c6cc7c(cc6N(C)C[C@@H]5C4)C(=O)N(C4CCC(=O)NC4=O)C7)CC3)cc2F)N1CC(F)F` (stereo partly drawn) [Compound B29, 3-((S)-3-((1-(4-((6S,8R)-7-(2,2-difluoroethyl)-8-methyl-6,7,8,9-tetrahydro-3H-pyrazolo[4,3-f]isoquinolin-6-yl)-3,5-difluorophenyl)piperidin-4-yl)methyl)-6-methyl-8-oxo-2,3,4,4a,5,6,8,10-octahydropyrazino[1,2-a]pyrrolo[3,4-g]quinoxalin-9(1H)-yl)piperidine-2,6-dione], the half-maximal degradation concentration (DC50) at ER is under 10 nM. The IC50 in assay [1] is under 1 nM.

For `C[C@@H]1Cc2c(ccc3[nH]ncc23)[C@@H](c2c(F)cc(N3CCC(CN4CCN5c6ccc7c(c6N(C)C[C@@H]5C4)CN(C4CCC(=O)NC4=O)C7=O)CC3)cc2F)N1CC(F)F` (stereo partly drawn) [Compound B30, 3-((S)-7-((1-(4-((6S,8R)-7-(2,2-difluoroethyl)-8-methyl-6,7,8,9-tetrahydro-3H-pyrazolo[4,3-f]isoquinolin-6-yl)-3,5-difluorophenyl)piperidin-4-yl)methyl)-4-methyl-1-oxo-3,4,5,5a,6,7,8,9-octahydropyrazino[1,2-a]pyrrolo[3,4-f]quinoxalin-2(1H)-yl)piperidine-2,6-dione], the DC50 at ER was under 10 nM. Further, the concentration for half-maximal inhibition (IC50) in assay [1] fell in the range of 1 to 10 nM.

Regarding `C[C@@H]1Cc2c(ccc3[nH]ncc23)[C@@H](c2c(F)cc(N3CCN(C(=O)CN4CCN5c6cc7c(cc6OC[C@@H]5C4)C(=O)N(C4CCC(=O)NC4=O)C7)CC3)cc2F)N1CC(F)F` (stereo partly drawn) [Compound B31], at ER, the half-maximal degradation concentration (DC50) lay within 10 to 100 nM. The concentration for half-maximal inhibition (IC50) in assay [1] was under 1 nM.

With `COc1c2c(cc3c1CN(C1CCC(=O)NC1=O)C3=O)CN(CC(=O)N1CCC3(CC1)CCN(c1ccc([C@@H]4c5ccc6[nH]ncc6c5C[C@@H](C)N4CC(F)(F)F)nc1)CC3)C2` (stereo partly drawn) [Compound B75, 3-(4-methoxy-6-(2-(9-(6-((6S,8R)-8-methyl-7-(2,2,2-trifluoroethyl)-6,7,8,9-tetrahydro-3H-pyrazolo[4,3-f]isoquinolin-6-yl)pyridin-3-yl)-3,9-diazaspiro[5.5]undecan-3-yl)-2-oxoethyl)-1-oxo-3,5,6,7-tetrahydropyrrolo[3,4-f]isoindol-2(1H)-yl)piperidine-2,6-dione], the IC50 in assay [1] is under 1 nM.
